Assay results from patent US7531568B2, “PPAR active compounds” (Plexxikon, Inc., priority 2004, dated 2009).

Legend:
PPARδ [1] = target: T1, PPARδ (Homo sapiens, UniProt Q03181); conditions: cited from earlier work
T1 sequence (Q03181 1-441): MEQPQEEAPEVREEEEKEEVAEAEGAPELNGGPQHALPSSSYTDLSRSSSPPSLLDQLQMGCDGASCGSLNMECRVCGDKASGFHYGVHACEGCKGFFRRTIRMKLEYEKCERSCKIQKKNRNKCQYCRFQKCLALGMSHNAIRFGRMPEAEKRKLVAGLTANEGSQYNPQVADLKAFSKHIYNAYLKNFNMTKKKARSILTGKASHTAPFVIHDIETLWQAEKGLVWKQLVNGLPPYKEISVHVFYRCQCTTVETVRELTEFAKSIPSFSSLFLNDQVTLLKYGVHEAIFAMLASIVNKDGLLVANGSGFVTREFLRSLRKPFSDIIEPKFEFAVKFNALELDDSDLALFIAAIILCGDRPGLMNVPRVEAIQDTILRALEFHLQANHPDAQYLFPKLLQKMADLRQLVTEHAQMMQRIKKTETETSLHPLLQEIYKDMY

murine PPARα = target: T2, murine PPARα (Mus musculus, UniProt P23204); conditions: cited from earlier work
T2 sequence (P23204 1-468): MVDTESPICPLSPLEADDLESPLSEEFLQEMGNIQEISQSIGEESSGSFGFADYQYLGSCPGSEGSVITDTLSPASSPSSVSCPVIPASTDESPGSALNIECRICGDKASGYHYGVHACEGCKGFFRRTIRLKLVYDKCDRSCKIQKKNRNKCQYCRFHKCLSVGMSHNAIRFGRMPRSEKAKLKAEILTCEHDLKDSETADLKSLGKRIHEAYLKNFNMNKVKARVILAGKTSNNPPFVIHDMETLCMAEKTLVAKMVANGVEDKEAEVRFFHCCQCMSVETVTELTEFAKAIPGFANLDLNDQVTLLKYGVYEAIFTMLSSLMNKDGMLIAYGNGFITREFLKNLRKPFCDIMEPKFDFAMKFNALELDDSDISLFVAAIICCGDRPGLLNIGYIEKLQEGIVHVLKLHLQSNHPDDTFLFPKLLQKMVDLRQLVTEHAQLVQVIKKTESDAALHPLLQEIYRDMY

PPARγ = target: T3, PPARγ (Homo sapiens, UniProt P37231); assay: homogenous Alpha screen assay, agonist mode, coactivator Biotin-PGC-1 peptide recruitment; format: biochemical; conditions: His-tagged PPAR-LBD 20 nM, 25 nM biotin-PGC-1 peptide, 1 hour room temperature; read-out: EC50 with respect to PPARγ
T3 sequence (P37231 with tags, fused parts or gaps): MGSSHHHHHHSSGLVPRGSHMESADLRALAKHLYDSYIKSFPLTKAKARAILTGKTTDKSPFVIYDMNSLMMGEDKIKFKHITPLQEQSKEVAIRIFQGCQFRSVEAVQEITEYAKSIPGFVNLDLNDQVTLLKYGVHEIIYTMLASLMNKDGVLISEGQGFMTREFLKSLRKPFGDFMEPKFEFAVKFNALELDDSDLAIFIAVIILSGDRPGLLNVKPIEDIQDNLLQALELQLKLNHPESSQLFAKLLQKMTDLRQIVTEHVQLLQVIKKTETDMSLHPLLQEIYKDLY
Text: (§1) Plasmids encoding the Ligand-binding domains (LBDs) of PPARα, PPARγ, and PPARδ were engineered using common polymerase chain reaction (PCR) methods (pGal4-PPARα-LBD, pGal4-PPARγ-LBD, pGal4-PPARδ-LBD). The relevant DNA sequences and encoded protein sequences used in the assay are shown for each (see below). Complementary DNA cloned from various human tissues was purchased from Invitrogen, and these were used as substrates in the PCR reactions. Specific custom synthetic oligonucleotide primers (Invitrogen, see below) were designed to initiate the PCR product, and also to provide the appropriate restriction enzyme cleavage sites for ligation with the plasmids.
For protein expression, plasmids containing genes of interest were transformed into E. coli strain BL21(DE3)RIL (Invitrogen) and transformants selected for growth on LB agar plates containing appropriate antibiotics. Single colonies were grown for 4 hrs at 37° C. in 200 ml LB media. […]. […]
(§2) The homogenous Alpha screen assay was used in the agonist mode to determine the ligand dependent interaction of the PPARs (α,δ,γ) with the coactivator Biotin-PGC- 1 peptide (biotin-AHX-[…]-CONH2 (SEQ ID NO: 13), supplied by Wyeth). […] The samples were incubated for 1 hour in the dark at room temperature before taking the reading in the Fusion alpha or Alpha Quest reader. […]

PPARδ [2] = target: T4, PPARδ (Homo sapiens, UniProt Q03181); assay: as above; format: biochemical; conditions: His-tagged PPAR-LBD 10 nM, 25 nM biotin-PGC-1 peptide, 1 hour room temperature; read-out: EC50 with respect to PPARδ
T4 construct: P1057. pET BAM6 PPARD G165-Y441-X; made in house; host or cells: E. coli BL21(DE3)RIL
T4 sequence (Q03181 with tags, fused parts or gaps): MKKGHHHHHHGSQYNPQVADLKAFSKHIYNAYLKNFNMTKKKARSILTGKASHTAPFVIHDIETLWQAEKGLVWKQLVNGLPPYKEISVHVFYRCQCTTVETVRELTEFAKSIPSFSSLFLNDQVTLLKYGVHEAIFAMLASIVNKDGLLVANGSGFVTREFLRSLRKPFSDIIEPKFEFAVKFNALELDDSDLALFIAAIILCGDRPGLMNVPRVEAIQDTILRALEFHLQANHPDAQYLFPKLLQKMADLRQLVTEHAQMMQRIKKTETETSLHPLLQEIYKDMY
Text: as §1
For PPARδ protein expression, single colonies were grown for 4 hrs at 37° C. in 200 mL LB media. 16×1 L of fresh TB media in 2.8 L flasks were inoculated with 10 mL of starter culture and grown with constant shaking at 37° C. […] Cells were harvested by centrifugation and pellets frozen at −80° C. until ready for lysis/purification. […]
as §2

[3] = recent large prospective trial; cited from earlier work

CCCc1c(OCCCOc2ccc(OCC(=O)O)cc2)ccc(C(C)=O)c1O [Compound L-165041]
agonist selectivity for PPARδ over PPARγ (PPARδ [1]): approximately 30 fold
activity on murine PPARα (murine PPARα): inactive

COc1ccc2c(c1)c(SCC(=O)O)cn2S(=O)(=O)c1ccc(Cl)c(Cl)c1 [Compound 27, [1-(3,4-dichloro-benzenesulfonyl)-5-methoxy-1H-indol-3-ylsulfanyl]-acetic acid]
EC50 (PPARγ): < 1000 nM
EC50 (PPARδ [2]): < 1000 nM

Cc1ccc(C)c(OCCCC(C)(C)C(=O)O)c1 [gemfibrozil]
reduction in cardiovascular events or death [3]: 22%
